Several values for one entry are separate records, joined by “and”; a condition that tells them apart may be missing. Identical values can stand only once.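 Briefly, cells in 96-well plates were exposed to five compound concentrations for 48 h, and endpoints were estimated by linear interpolation. GI50: concentration for 50% inhibition of growth. TGI: concentration producing complete growth inhibition.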
Columns and labels:
Test in all cases: inhibition of tumour cell growth, NCI panel, 48 h
[1] = tested on: HL-60(TB) leukemia
[2] = tested on: SN12C renal
[3] = tested on: NCI-H460 lung
[4] = tested on: COLO 205 colon
[5] = tested on: UACC-62 melanoma
[6] = tested on: A498 renal
[7] = tested on: HCC-2998 colon
[8] = tested on: IGROV1 ovarian
[9] = tested on: NCI-H226 lung
[10] = tested on: NCI/ADR-RES ovarian

SMILES	TGI [1]	TGI [2]	TGI [3]	TGI [4]	TGI [5]	TGI [6]	TGI [7]	TGI [8]	TGI [9]	TGI [10]	GI50 [1]	GI50 [3]	GI50 [4]	GI50 [5]	GI50 [8]	GI50 [2]	GI50 [9]	GI50 [10]	GI50 [7]
c1ccc2c(c1)C1=NCCN1c1ccccc1-2	5.17 µM	9.92 µM	4 µM	2.77 µM	13 µM	8.82 µM	18.8 µM	17.2 µM	–	–	–	–	–	–	–	–	–	–	–
O=C1OC(CN2CCOCC2)CN1/N=C/c1ccc([N+](=O)[O-])o1 (stereo not drawn)	> 100 µM	92 µM	> 100 µM	> 100 µM	99.2 µM	–	–	84.8 µM	> 100 µM	> 100 µM	–	–	–	–	–	–	–	–	–
CC(C)c1cc(OCC(O)CO)cc(C(C)C)c1 (stereo not drawn)	> 100 µM	> 100 µM	> 100 µM	> 100 µM	> 100 µM	> 100 µM	> 100 µM	> 100 µM	> 100 µM	–	–	–	–	–	–	–	–	–	–
Cc1cccc2nc3cccc(C(=O)NCCN(C)C)c3nc12	12 µM	3.15 µM	16.5 µM	3.14 µM	2.42 µM	1.35 µM	2.27 µM	15.5 µM	4.17 µM	–	–	–	–	–	–	–	–	–	–
N#CC1=C(Cl)NC(Cl)=C(C#N)C1c1c(Cl)cccc1Cl	37.5 µM	79.5 µM	38.3 µM	32.8 µM	73.4 µM	> 100 µM	47 µM	> 100 µM	> 100 µM	–	–	–	–	–	–	–	–	–	–
O=S(=O)(C/C(=N\O)c1ccccc1)c1ccccc1	> 100 µM	> 100 µM	> 100 µM	> 100 µM	> 100 µM	> 100 µM	> 100 µM	> 100 µM	> 100 µM	–	–	–	–	–	–	–	–	–	–
O=C(/C=C1/Nc2ccc([N+](=O)[O-])cc2NC1O)c1cccc([N+](=O)[O-])c1 (stereo not drawn)	> 100 µM	> 100 µM	> 100 µM	> 100 µM	> 100 µM	> 100 µM	> 100 µM	> 100 µM	> 100 µM	–	–	–	–	–	–	–	–	–	–
O=C1OC(OCC#CCOC2OC(=O)C(Cl)=C2Cl)C(Cl)=C1Cl (stereo not drawn)	–	32.5 µM	58.9 µM	–	38.3 µM	–	14.3 µM	29.9 µM	–	75.3 µM	–	–	–	–	–	–	–	–	–
Cc1cc2c(C)n(Cc3ccc(Cl)cc3Cl)nc2c(C(=O)O)c1C	> 100 µM	> 100 µM	> 100 µM	> 100 µM	> 100 µM	–	> 100 µM	> 100 µM	> 100 µM	–	–	–	–	–	–	–	–	–	–
O=[N+]([O-])c1ccc(Cl)cc1C1SCc2nc3ccccc3n21 (stereo not drawn)	> 100 µM	> 100 µM	23.4 µM	> 100 µM	> 100 µM	54 µM	> 100 µM	> 100 µM	–	–	–	–	–	–	–	–	–	–	–
COC(=O)C1=CC2OC1(C)CCC2=O (stereo not drawn)	80.4 µM	> 100 µM	> 100 µM	> 100 µM	–	–	> 100 µM	> 100 µM	> 100 µM	–	–	–	–	–	–	–	–	–	–
O=C1C2Nc3ccccc3SC2C(=O)N1c1ccccc1C(F)(F)F (stereo not drawn)	28.1 µM	78.2 µM	> 100 µM	–	> 100 µM	–	35.7 µM	> 100 µM	> 100 µM	–	–	–	–	–	–	–	–	–	–
C[C@H]1C(=O)CC[C@]2(C)CCC(C(C)(C)O)CC12O (stereo partly drawn)	> 100 µM	> 100 µM	> 100 µM	> 100 µM	> 100 µM	> 100 µM	> 100 µM	> 100 µM	> 100 µM	–	–	–	–	–	–	–	–	–	–
CC12Oc3ccc4ccccc4c3CC1Cc1c(ccc3ccccc13)O2 (stereo not drawn)	> 100 µM	–	> 100 µM	> 100 µM	–	–	> 100 µM	–	> 100 µM	–	–	–	–	–	–	–	–	–	–
Cc1cccc(C(C)(C)C)c1NC(=O)CC1Sc2ccccc2NC1=O (stereo not drawn)	89.9 µM	> 100 µM	> 100 µM	59.7 µM	> 100 µM	> 100 µM	> 100 µM	> 100 µM	> 100 µM	–	–	–	–	–	–	–	–	–	–
COc1ccc2c(c1OC)C(=O)c1cnccc1C2=O	> 100 µM	> 100 µM	> 100 µM	> 100 µM	> 100 µM	–	> 100 µM	> 100 µM	> 100 µM	–	–	–	–	–	–	–	–	–	–
COc1ccc2nc(NC(=O)C(=O)C(C#N)c3ccc(Cl)c(Cl)c3)sc2c1 (stereo not drawn)	> 100 µM	> 100 µM	> 100 µM	> 100 µM	> 100 µM	> 100 µM	–	> 100 µM	> 100 µM	–	–	–	–	–	–	–	–	–	–
Cc1ccccc1-n1c(C)nc(-c2ccccc2)cc1=O	> 100 µM	> 100 µM	> 100 µM	> 100 µM	> 100 µM	> 100 µM	> 100 µM	> 100 µM	> 100 µM	–	–	–	–	–	–	–	–	–	–

SMILES	TGI [1]	TGI [2]	TGI [3]	TGI [4]	TGI [5]	TGI [6]	TGI [7]	TGI [8]	TGI [9]	TGI [10]	GI50 [1]	GI50 [3]	GI50 [4]	GI50 [5]	GI50 [8]	GI50 [2]	GI50 [9]	GI50 [10]	GI50 [7]
CN(/N=N/c1nc(OCc2ccccc2)c2[nH]cnc2n1)C(=O)Oc1ccc([N+](=O)[O-])cc1	> 50 µM	–	31.3 µM	29.7 µM	15.2 µM	–	–	31.2 µM	–	–	11.9 µM	6.71 µM	10.2 µM	7.5 µM	12.2 µM	–	–	–	–
CN1CC(=O)N(C)c2nc[nH]c2C1=O	> 100 µM	> 100 µM	> 100 µM	> 100 µM	> 100 µM	> 100 µM	> 100 µM	> 100 µM	> 100 µM	–	–	–	–	–	–	–	–	–	–
Nn1c(N=Nc2c(O)[nH]c3c(Cl)cc(Cl)cc23)n[nH]c1=S	> 100 µM	> 100 µM	> 100 µM	> 100 µM	> 100 µM	> 100 µM	> 100 µM	> 100 µM	> 100 µM	–	–	–	–	–	–	–	–	–	–
COC1=C2CC(C)CC(OC)C(O)C(C)/C=C(\C)C(OC(N)=O)C(OC)/C=C\C=C(/C)C(=O)NC(=C(/C=N/N3CCCCC3)C1=O)C2=O (stereo not drawn)	4.32 µM	15.5 µM	57.1 µM	8.25 µM	48.1 µM	63.8 µM	18.9 µM	27 µM	34.5 µM	–	–	–	–	–	–	–	–	–	–
O=C(O)CCSC(=O)Nc1ccc(N=Nc2ccccc2)cc1	> 100 µM	> 100 µM	> 100 µM	> 100 µM	> 100 µM	> 100 µM	> 100 µM	> 100 µM	> 100 µM	–	–	–	–	–	–	–	–	–	–
O=C(NS(=O)(=O)c1ccccc1)C(Cc1ccccc1)C(Cc1ccccc1)C(=O)NS(=O)(=O)c1ccccc1 (stereo not drawn)	> 100 µM	> 100 µM	> 100 µM	> 100 µM	> 100 µM	> 100 µM	> 100 µM	> 100 µM	> 100 µM	–	–	–	–	–	–	–	–	–	–
Nc1n[nH]c(CCc2nc(N)n[nH]2)n1	> 100 µM	> 100 µM	> 100 µM	> 100 µM	> 100 µM	> 100 µM	> 100 µM	> 100 µM	> 100 µM	–	–	–	–	–	–	–	–	–	–
CCC(Oc1ccc(OC)c2ccccc(=O)c12)C(=O)O (stereo not drawn)	> 100 µM	> 100 µM	> 100 µM	> 100 µM	> 100 µM	> 100 µM	> 100 µM	> 100 µM	> 100 µM	–	–	–	–	–	–	–	–	–	–
C=CCCCc1ccc(C(O)CCCCCCCCCCCC)o1 (stereo not drawn)	–	31.4 µM	60.7 µM	38.6 µM	43 µM	–	55 µM	44.9 µM	34.3 µM	34.2 µM	–	22 µM	19.6 µM	17.7 µM	19.5 µM	17.2 µM	17.8 µM	17.4 µM	22.1 µM
O=C1c2nc3n(c2C(=O)c2c1nc1n2CCC1)CCC3	> 36.6 µM	14.5 µM	6.24 µM	18.5 µM	5.5 µM and 3.65 µM	29.6 µM	21 µM	24.5 µM	19.1 µM	–	–	3.89 µM	4.13 µM	2.21 µM	–	9.48 µM	7.84 µM	–	–
COC(=O)C1=C(c2ccc3c(c2)OCO3)OC(c2cc(OC)c(OC)c(OC)c2)C1 (stereo not drawn)	–	> 100 µM	> 100 µM	3.98 µM	19.2 µM	8.04 µM	> 100 µM	9.53 µM	> 100 µM	–	–	–	–	–	–	–	–	–	–
O=C(O)c1ccccc1NC(=O)C1CCCCC1	> 100 µM	> 100 µM	> 100 µM	> 100 µM	> 100 µM	> 100 µM	> 100 µM	> 100 µM	> 100 µM	–	–	–	–	–	–	–	–	–	–
O=C(CC1C(=O)Nc2ccccc2S1=O)Nc1ccc(Cl)cc1 (stereo not drawn)	> 100 µM	> 100 µM	> 100 µM	> 100 µM	> 100 µM	–	> 100 µM	> 100 µM	> 100 µM	–	–	–	–	–	–	–	–	–	–
CC1=C(C(=O)Nc2ccc([N+](=O)[O-])cc2)C(c2ccccc2F)C(C(=O)Nc2ccc([N+](=O)[O-])cc2)=C(C)N1	24.7 µM	48.3 µM	69.7 µM	29.7 µM	–	34.9 µM	29.1 µM	> 100 µM	79.7 µM	–	–	–	–	–	–	–	–	–	–
CC1(C)OC(=O)C=C([O-])O1.CC1(C)OC(=O)C=C([O-])O1.CC[O-].CC[O-].[Ti+4]	> 100 µM	–	> 100 µM	> 100 µM	> 100 µM	–	> 100 µM	> 100 µM	> 100 µM	–	> 100 µM	> 100 µM	> 100 µM	> 100 µM	> 100 µM	–	> 100 µM	–	> 100 µM
CN(C)C(=S)/N=c1\ss/c(=N\S(=O)(=O)c2ccccc2)n1N(C)C	> 100 µM	> 100 µM	> 100 µM	> 100 µM	> 100 µM	> 100 µM	> 100 µM	> 100 µM	> 100 µM	–	–	–	–	–	–	–	–	–	–
CCCCCCC(/C=N/O)C(C)(O)CCC (stereo not drawn)	> 100 µM	> 100 µM	> 100 µM	> 100 µM	> 100 µM	> 100 µM	> 100 µM	> 100 µM	> 100 µM	–	–	–	–	–	–	–	–	–	–
